Results on 2 compounds are retold here after US20260028410A1, “TREATMENT OF GRAFT VERSUS HOST DISEASES USING ANTI-CD122 ANTIBODY” (FORTE SUBSIDIARY, INC., priority 2023, published 2026).

The target of experiment [1] is T1, Intermediate-affinity heterodimeric IL-βγ receptor (Homo sapiens, UniProt P14784+P31785).
T1 sequence (P14784 27-551): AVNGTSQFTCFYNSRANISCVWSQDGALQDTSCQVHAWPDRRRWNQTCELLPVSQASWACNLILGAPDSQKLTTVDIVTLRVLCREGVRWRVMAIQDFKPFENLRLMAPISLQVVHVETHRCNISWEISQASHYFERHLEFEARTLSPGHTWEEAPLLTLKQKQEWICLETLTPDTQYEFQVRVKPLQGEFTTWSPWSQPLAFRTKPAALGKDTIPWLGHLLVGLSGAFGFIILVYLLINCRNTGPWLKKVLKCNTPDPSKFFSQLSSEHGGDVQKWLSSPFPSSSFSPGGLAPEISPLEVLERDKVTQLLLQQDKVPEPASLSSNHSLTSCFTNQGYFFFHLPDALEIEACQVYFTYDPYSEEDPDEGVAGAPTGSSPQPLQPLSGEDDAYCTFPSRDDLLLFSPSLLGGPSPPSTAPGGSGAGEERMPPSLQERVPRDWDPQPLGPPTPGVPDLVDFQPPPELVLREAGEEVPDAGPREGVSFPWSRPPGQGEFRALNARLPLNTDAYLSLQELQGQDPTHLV
T1 sequence (P31785 23-369): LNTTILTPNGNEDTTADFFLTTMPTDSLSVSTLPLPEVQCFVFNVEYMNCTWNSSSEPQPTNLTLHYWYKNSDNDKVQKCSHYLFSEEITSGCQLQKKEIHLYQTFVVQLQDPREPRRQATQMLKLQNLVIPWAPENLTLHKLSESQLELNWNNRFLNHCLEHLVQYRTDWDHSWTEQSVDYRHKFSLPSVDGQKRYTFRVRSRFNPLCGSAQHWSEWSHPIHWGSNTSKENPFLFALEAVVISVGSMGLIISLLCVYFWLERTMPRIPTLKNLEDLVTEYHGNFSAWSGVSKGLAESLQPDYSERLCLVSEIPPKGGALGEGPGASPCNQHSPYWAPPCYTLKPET
The conditions noted are these: ligand affinity for IL-βγ receptor (CD122/CD132); cited from earlier work.

For experiment [2], the target named is high-affinity heterotrimer IL-αβγ receptor. The conditions noted are these: ligand affinity for IL-αβγ receptor combinations; cited from earlier work.
The subject of experiment [3] is human T and NK cell-mediated aGvHD (xenograft GvHD mouse model). The experiment in a line: Acute GvHD xenograft mouse model, dose-ranging of Antibody 1 (Example 1), survival. Type of experiment: in vivo, NCG-hIL-15 mice transplanted with human PBMCs. To be noted: Day 14; 60 mcg each twice daily oral D5-D14; n=10. Here is the method:
A xenograft GvHD mouse model was utilized to study human T and NK cell-mediated aGvHD and the therapeutic effects of anti-CD122 antibody treatment therein. Female NCG-hIL-15 mice were irradiated at a dosage of 100 cGy on Day 1 of the protocol and human peripheral blood mononuclear cells (PBMCs) were transplanted via injection at a dosage of 1×10^7 cells/200 μL/mice via IV administration into the irradiated mice. PBMCs are immune cells that originate in the bone marrow and are secreted into the peripheral circulation forming critical components of the immune system. PBMCs are involved in humoral and cell-mediated immune function. […] Groups of 10 mice were used for each test category. A vehicle group (n=10) served as a negative control with no treatment administered (only a combination of vehicle treatments) following transplant. A positive control group (n=10) of mice treated with 60 mcg each of ruxolitinib twice daily by oral administration was included in the study design. Ruxolitinib-treated animals were treated via oral administration of ruxolitinib twice daily on D5, D6, D7, D8, D9, D10, D11, D12, D13, and D14. Three groups of Antibody 1 treated animals (n=10 for each group) were tested using a) 75 milligram per kilogram of body weight (mpk) of antibody, b) 125 mpk of antibody, and c) 175 mpk of antibody, respectively. […]
A general note: Xenograft models place foreign cells or tissue in a host animal.

Experiment [4] shares this test system. The experiment in a line: Acute GvHD xenograft mouse model, single vs combination therapy with Antibody 1 (Example 2), survival. To be noted: ruxolitinib 60 mpk twice-daily oral, Antibody 1 75 mpk once-daily IP, D5-D18. It counts as in vivo, NCG-hIL-15 mice transplanted with human PBMCs.
Method: (§1) A xenograft GvHD mouse model was utilized to study human T and NK cell-mediated aGvHD and the therapeutic effects of anti-CD122 antibody treatment in single or combination therapy approaches. Female NCG-hIL-15 mice were irradiated at a dosage of 100 cGy on Day 1 of the protocol and human peripheral blood mononuclear cells (PBMCs) were transplanted via injection at a dosage of 1×10^7 cells/200 μL/mice via IV administration into the irradiated mice according to the same xenograft GvHD mouse model design as in Example 1.
Treatment according to 3 different grouping of animals was begun on Day 5 following transplant, as shown in the study design of FIG. 3. Groups of 10 mice were used for each test category. A single treatment group, Group #1, (n=10) received ruxolitinib (at a dosage of 60 mpk) twice-daily by oral administration beginning on Day 5 and ending on Day 18. Days of treatment were D5, D6, D7, D8, D9, D10, D11, D12, D13, D14, D15, D16, D17, and D18. A combination therapy group, Group #2, (n=10) received ruxolitinib (at a dosage of 60 mpk) twice-daily by oral administration beginning on Day 5 and ending on Day 18. Days of treatment using ruxolitinib in Group #2 were D5, D6, D7, D8, D9, D10, D11, D12, D13, D14, D15, D16, D17, and D18. Group #2 animals separately received treatment with Antibody 1 (anti-CD122 antibody as described herein) at a dosage of 75 mpk once-daily by IP administration. Days of treatment using Antibody 1 in Group #2 were D5, D6, D7, D8, D9, D10, D11, D12, D13, D14, D15, D16, D17, and D18. A vehicle group, Group #3, (n=10) served as a negative control with vehicle-only administered following transplant received twice daily oral placebo (vehicle only) beginning on Day 5 and ending on Day 18. Days of oral placebo treatment were D5, D6, D7, D8, D9, D10, D11, D12, D13, D14, D15, D16, D17, and D18. […]
(§2) Day 18 was the end of study day for all treatment groups. Animals from all treatment groups were assessed daily beginning on Day 1 and ending on Day 18 for survival following transplant. […]
Experiment [5] shares this test system. The experiment in a line: Acute GvHD xenograft mouse model, single vs combination therapy with Antibody 2 or Antibody 3 (Example 5), survival. It counts as in vivo, NCG-hIL-15 mice transplanted with human PBMCs.
Method: as §1
Treatment according to 3 different grouping of animals was begun on Day 5 following transplant, as shown in the study design of FIG. 5. Groups of a sufficient number of mice were used for each test category in order to evaluate a significant difference between test groups. A single treatment group, Group #1, received ruxolitinib (at a dosage of 60 mpk) twice-daily by oral administration beginning on Day 5 and ending on Day 18. Days of treatment are D5, D6, D7, D8, D9, D10, D11, D12, D13, D14, D15, D16, D17, and D18. A combination therapy group, Group #2, received ruxolitinib (at a dosage of 60 mpk) twice-daily by oral administration beginning on Day 5 and ending on Day 18. Days of treatment using ruxolitinib in Group #2 were D5, D6, D7, D8, D9, D10, D1I, D12, D13, D14, D15, D16, D17, and D18. Group #2 animals separately receive anti-CD122 antibody therapy (at a dosage of 75 mpk) once-daily by IP administration. Days of treatment using anti-CD122 antibody in Group #2 were D5, D6, D7, D8, D9, D10, D11, D12, D13, D14, D15, D16, D17, and D18. A vehicle group, Group #3, served as a negative control with vehicle-only administered following transplant received twice daily oral placebo (vehicle only) beginning on Day 5 and ending on Day 18. Days of oral placebo treatment were D5, D6, D7, D8, D9, D10, D11, D12, D13, D14, D15, D16, D17, and D18. […]
as §2

IL15: cytokine interleukin 15: the Kd in experiment [1] was roughly 1000 pM; in experiment [2], roughly 10 pM.

As to `N#CC[C@H](C1CCCC1)n1cc(-c2ncnc3[nH]ccc23)cn1` [ruxolitinib], the “survival at study conclusion” value in experiment [3] was 60%. In experiment [4] (Day 18, n=10), the “survival rate at the end of the study” value was determined as 30%. Moreover, the “Average survival time” value was found to be 16.3 ± 3.4 days in experiment [4] (up to Day 18, Mean ± SD) and 13.20 ± 0.93 days in experiment [5] (aGvHD xenograft mice, treatment Day 5 to Day 18 (ruxolitinib 60 mpk twice-daily oral; anti-CD122 antibody 75 mpk once-daily IP), followed to Day 18, Mean ± SD). For the same compound, the “Median survival” value worked out at 17.5 days in experiment [4] (up to Day 18) and 14 days in experiment [5] (aGvHD xenograft mice, treatment Day 5 to Day 18 (ruxolitinib 60 mpk twice-daily oral; anti-CD122 antibody 75 mpk once-daily IP), followed to Day 18). For the same compound, in experiment [5] (Day 18, ruxolitinib 60 mpk twice-daily oral, anti-CD122 antibody 75 mpk once-daily IP, D5-D18, n=10), the “survival on Day 18” value amounted to 0%.

Usually Kd stands for the equilibrium constant for the complex coming apart.
